S=c1[nH]c2ccccc2s1
solubility (mole fraction) (in 1,4-dioxane, 285.65 K): 0.0438
solubility (mole fraction) (in 1,4-dioxane, 288.15 K): 0.0466
solubility (mole fraction) (in 1,4-dioxane, 290.65 K): 0.0502
solubility (mole fraction) (in 1,4-dioxane, 293.15 K): 0.0536
solubility (mole fraction) (in 1,4-dioxane, 295.65 K): 0.0574
solubility (mole fraction) (in 1,4-dioxane, 298.15 K): 0.0613
solubility (mole fraction) (in 1,4-dioxane, 300.65 K): 0.0652
solubility (mole fraction) (in 1,4-dioxane, 303.15 K): 0.0698
solubility (mole fraction) (in 1,4-dioxane, 305.65 K): 0.0742
solubility (mole fraction) (in 1,4-dioxane, 308.15 K): 0.079
solubility (mole fraction) (in 1,4-dioxane, 310.65 K): 0.0835
solubility (mole fraction) (in 1,4-dioxane, 313.15 K): 0.0893
solubility (mole fraction) (in 1,4-dioxane, 315.65 K): 0.0943
solubility (mole fraction) (in 1,4-dioxane, 318.15 K): 0.101
solubility (mole fraction) (in 2-butanone, 273.15 K): 0.0695
solubility (mole fraction) (in 2-butanone, 275.65 K): 0.0722
solubility (mole fraction) (in 2-butanone, 278.15 K): 0.0752
solubility (mole fraction) (in 2-butanone, 280.65 K): 0.0778
solubility (mole fraction) (in 2-butanone, 283.15 K): 0.0807
solubility (mole fraction) (in 2-butanone, 285.65 K): 0.0837
solubility (mole fraction) (in 2-butanone, 288.15 K): 0.0867
solubility (mole fraction) (in 2-butanone, 290.65 K): 0.0902
solubility (mole fraction) (in 2-butanone, 293.15 K): 0.093
solubility (mole fraction) (in 2-butanone, 295.65 K): 0.0967
solubility (mole fraction) (in 2-butanone, 298.15 K): 0.0995
solubility (mole fraction) (in 2-butanone, 300.65 K): 0.103
solubility (mole fraction) (in 2-butanone, 303.15 K): 0.106
solubility (mole fraction) (in 2-butanone, 305.65 K): 0.11
solubility (mole fraction) (in 2-butanone, 308.15 K): 0.113
solubility (mole fraction) (in 2-butanone, 310.65 K): 0.116
solubility (mole fraction) (in 2-butanone, 313.15 K): 0.12
solubility (mole fraction) (in 2-butanone, 315.65 K): 0.124
solubility (mole fraction) (in 2-butanone, 318.15 K): 0.128
solubility (mole fraction) (in acetonitrile, 273.15 K): 0.00426
solubility (mole fraction) (in acetonitrile, 275.65 K): 0.00467
solubility (mole fraction) (in acetonitrile, 278.15 K): 0.00507
solubility (mole fraction) (in acetonitrile, 280.65 K): 0.00553
solubility (mole fraction) (in acetonitrile, 283.15 K): 0.00597
solubility (mole fraction) (in acetonitrile, 285.65 K): 0.00647
solubility (mole fraction) (in acetonitrile, 288.15 K): 0.00705
solubility (mole fraction) (in acetonitrile, 290.65 K): 0.00762
solubility (mole fraction) (in acetonitrile, 293.15 K): 0.00819
solubility (mole fraction) (in acetonitrile, 295.65 K): 0.00885
solubility (mole fraction) (in acetonitrile, 298.15 K): 0.00956
solubility (mole fraction) (in acetonitrile, 300.65 K): 0.0102
solubility (mole fraction) (in acetonitrile, 303.15 K): 0.011
solubility (mole fraction) (in acetonitrile, 305.65 K): 0.0118
solubility (mole fraction) (in acetonitrile, 308.15 K): 0.0127
solubility (mole fraction) (in acetonitrile, 310.65 K): 0.0137
solubility (mole fraction) (in acetonitrile, 313.15 K): 0.0146
solubility (mole fraction) (in acetonitrile, 315.65 K): 0.0155
solubility (mole fraction) (in acetonitrile, 318.15 K): 0.0167
solubility (mole fraction) (in chloroform, 273.15 K): 0.00683
solubility (mole fraction) (in chloroform, 275.65 K): 0.0072
solubility (mole fraction) (in chloroform, 278.15 K): 0.00766
solubility (mole fraction) (in chloroform, 280.65 K): 0.00816
solubility (mole fraction) (in chloroform, 283.15 K): 0.00865
solubility (mole fraction) (in chloroform, 285.65 K): 0.00922
solubility (mole fraction) (in chloroform, 288.15 K): 0.00972
solubility (mole fraction) (in chloroform, 290.65 K): 0.0104
solubility (mole fraction) (in chloroform, 293.15 K): 0.0109
solubility (mole fraction) (in chloroform, 295.65 K): 0.0115
solubility (mole fraction) (in chloroform, 298.15 K): 0.0121
solubility (mole fraction) (in chloroform, 300.65 K): 0.0128
solubility (mole fraction) (in chloroform, 303.15 K): 0.0135
solubility (mole fraction) (in chloroform, 305.65 K): 0.0142
solubility (mole fraction) (in chloroform, 308.15 K): 0.0149
solubility (mole fraction) (in chloroform, 310.65 K): 0.0156
solubility (mole fraction) (in chloroform, 313.15 K): 0.0165
solubility (mole fraction) (in chloroform, 315.65 K): 0.0172
solubility (mole fraction) (in chloroform, 318.15 K): 0.0182
solubility (mole fraction) (in ethyl acetate, 273.15 K): 0.0274
solubility (mole fraction) (in ethyl acetate, 275.65 K): 0.0286
solubility (mole fraction) (in ethyl acetate, 278.15 K): 0.0297
solubility (mole fraction) (in ethyl acetate, 280.65 K): 0.0309
solubility (mole fraction) (in ethyl acetate, 283.15 K): 0.0323
solubility (mole fraction) (in ethyl acetate, 285.65 K): 0.0336
solubility (mole fraction) (in ethyl acetate, 288.15 K): 0.0348
solubility (mole fraction) (in ethyl acetate, 290.65 K): 0.0361
solubility (mole fraction) (in ethyl acetate, 293.15 K): 0.0374
solubility (mole fraction) (in ethyl acetate, 295.65 K): 0.0389
solubility (mole fraction) (in ethyl acetate, 298.15 K): 0.0403
solubility (mole fraction) (in ethyl acetate, 300.65 K): 0.0419
solubility (mole fraction) (in ethyl acetate, 303.15 K): 0.0434
solubility (mole fraction) (in ethyl acetate, 305.65 K): 0.0448
solubility (mole fraction) (in ethyl acetate, 308.15 K): 0.0465
solubility (mole fraction) (in ethyl acetate, 310.65 K): 0.0482
solubility (mole fraction) (in ethyl acetate, 313.15 K): 0.0499
solubility (mole fraction) (in ethyl acetate, 315.65 K): 0.0513
solubility (mole fraction) (in ethyl acetate, 318.15 K): 0.0532
solubility (mole fraction) (in isobutanol, 273.15 K): 0.0101
solubility (mole fraction) (in isobutanol, 275.65 K): 0.011
solubility (mole fraction) (in isobutanol, 278.15 K): 0.012
solubility (mole fraction) (in isobutanol, 280.65 K): 0.0132
solubility (mole fraction) (in isobutanol, 283.15 K): 0.0143
solubility (mole fraction) (in isobutanol, 285.65 K): 0.0155
solubility (mole fraction) (in isobutanol, 288.15 K): 0.0169
solubility (mole fraction) (in isobutanol, 290.65 K): 0.0184
solubility (mole fraction) (in isobutanol, 293.15 K): 0.0199
solubility (mole fraction) (in isobutanol, 295.65 K): 0.0215
solubility (mole fraction) (in isobutanol, 298.15 K): 0.0231
solubility (mole fraction) (in isobutanol, 300.65 K): 0.0252

— BigSolDB 2.1
